Laboratory results from the NIST ThermoML archive (doi:10.1016/j.fluid.2010.02.037).

Settings: Gas, Oscillating disk viscometry

CCN(CC)CC [triethylamine]
Settings	viscosity [mPa·s]
296.98 K, Amount density=4.2 mol/m3	0.006418
297.59 K, Amount density=6.31 mol/m3	0.006412
297.87 K, Amount density=8.75 mol/m3	0.006427
297.97 K, Amount density=4.2 mol/m3	0.006439
297.98 K, Amount density=4.99 mol/m3	0.00644
298.33 K, Amount density=4.99 mol/m3	0.006437
299.24 K, Amount density=7.52 mol/m3	0.006446
299.36 K, Amount density=6.31 mol/m3	0.006449
299.67 K, Amount density=2.2 mol/m3	0.00649
299.85 K, Amount density=2.2 mol/m3	0.006485
300.02 K, Amount density=3.13 mol/m3	0.006488
300.11 K, Amount density=8.75 mol/m3	0.00646
303.12 K, Amount density=3.13 mol/m3	0.006548
310.02 K, Amount density=4.2 mol/m3	0.006668
310.29 K, Amount density=6.31 mol/m3	0.006654
311.78 K, Amount density=8.75 mol/m3	0.006667
313.96 K, Amount density=2.2 mol/m3	0.006764
314.61 K, Amount density=4.99 mol/m3	0.00675
316.33 K, Amount density=3.13 mol/m3	0.006815
324.05 K, Amount density=8.75 mol/m3	0.006913
324.26 K, Amount density=3.13 mol/m3	0.006981
324.9 K, Amount density=6.31 mol/m3	0.006948
324.95 K, Amount density=4.2 mol/m3	0.006971
325.84 K, Amount density=4.99 mol/m3	0.00698
326.04 K, Amount density=7.52 mol/m3	0.006979
326.63 K, Amount density=2.2 mol/m3	0.007024
337.84 K, Amount density=6.31 mol/m3	0.007205
338.12 K, Amount density=7.52 mol/m3	0.007218
338.25 K, Amount density=4.99 mol/m3	0.007233
338.31 K, Amount density=3.13 mol/m3	0.007259
338.63 K, Amount density=4.2 mol/m3	0.007245
338.92 K, Amount density=8.75 mol/m3	0.007217
339.05 K, Amount density=2.2 mol/m3	0.007275
352.32 K, Amount density=7.52 mol/m3	0.007513
352.34 K, Amount density=8.75 mol/m3	0.007487
352.41 K, Amount density=6.31 mol/m3	0.007492
352.46 K, Amount density=4.99 mol/m3	0.007529
352.5 K, Amount density=2.2 mol/m3	0.007551
352.91 K, Amount density=3.13 mol/m3	0.007557
353.3 K, Amount density=4.2 mol/m3	0.007551
365.86 K, Amount density=4.2 mol/m3	0.007803
366.42 K, Amount density=8.75 mol/m3	0.007782
366.49 K, Amount density=3.13 mol/m3	0.007839
366.6 K, Amount density=2.2 mol/m3	0.007842
366.72 K, Amount density=7.52 mol/m3	0.007801
366.77 K, Amount density=6.31 mol/m3	0.007784
367.25 K, Amount density=4.99 mol/m3	0.007831
380.54 K, Amount density=4.99 mol/m3	0.008109
380.67 K, Amount density=3.13 mol/m3	0.008129
381.06 K, Amount density=8.75 mol/m3	0.008076
381.14 K, Amount density=2.2 mol/m3	0.008137
381.83 K, Amount density=6.31 mol/m3	0.008106
385.41 K, Amount density=4.2 mol/m3	0.008217
385.75 K, Amount density=7.52 mol/m3	0.008206
394.25 K, Amount density=4.2 mol/m3	0.008388
394.49 K, Amount density=6.31 mol/m3	0.00837
394.51 K, Amount density=4.99 mol/m3	0.008386
394.56 K, Amount density=2.2 mol/m3	0.008413
394.86 K, Amount density=7.52 mol/m3	0.008384
394.95 K, Amount density=3.13 mol/m3	0.008423
395.11 K, Amount density=8.75 mol/m3	0.008369
408.35 K, Amount density=8.75 mol/m3	0.00864
408.97 K, Amount density=6.31 mol/m3	0.008662
409.2 K, Amount density=2.2 mol/m3	0.008718
409.32 K, Amount density=4.99 mol/m3	0.008707
409.67 K, Amount density=7.52 mol/m3	0.00869
409.73 K, Amount density=4.2 mol/m3	0.008711
412.99 K, Amount density=3.13 mol/m3	0.008804
422.67 K, Amount density=8.75 mol/m3	0.008939
422.79 K, Amount density=2.2 mol/m3	0.008996
423.03 K, Amount density=7.52 mol/m3	0.008963
423.25 K, Amount density=4.99 mol/m3	0.008991
423.41 K, Amount density=3.13 mol/m3	0.009012
423.92 K, Amount density=6.31 mol/m3	0.008966
423.93 K, Amount density=4.2 mol/m3	0.008988
436.97 K, Amount density=4.2 mol/m3	0.009275
437.11 K, Amount density=6.31 mol/m3	0.009249
437.42 K, Amount density=2.2 mol/m3	0.009296
437.51 K, Amount density=3.13 mol/m3	0.009315
437.62 K, Amount density=4.99 mol/m3	0.009286
437.76 K, Amount density=8.75 mol/m3	0.009255
437.87 K, Amount density=7.52 mol/m3	0.009269
451.28 K, Amount density=4.99 mol/m3	0.009572
451.45 K, Amount density=8.75 mol/m3	0.009534
451.66 K, Amount density=6.31 mol/m3	0.009554
451.72 K, Amount density=2.2 mol/m3	0.009594
451.74 K, Amount density=3.13 mol/m3	0.009599
451.76 K, Amount density=4.2 mol/m3	0.009586
451.93 K, Amount density=7.52 mol/m3	0.009558
465.92 K, Amount density=6.31 mol/m3	0.009846
466.45 K, Amount density=4.99 mol/m3	0.009879
466.58 K, Amount density=2.2 mol/m3	0.009907
466.63 K, Amount density=8.75 mol/m3	0.009851
466.71 K, Amount density=4.2 mol/m3	0.009893
469.98 K, Amount density=3.13 mol/m3	0.009985
471.39 K, Amount density=7.52 mol/m3	0.009972
480.12 K, Amount density=8.75 mol/m3	0.01013
480.36 K, Amount density=2.2 mol/m3	0.01019
480.43 K, Amount density=4.99 mol/m3	0.01017
480.7 K, Amount density=7.52 mol/m3	0.01015
480.86 K, Amount density=3.13 mol/m3	0.0102
481.09 K, Amount density=6.31 mol/m3	0.01015
481.32 K, Amount density=4.2 mol/m3	0.01019
495.17 K, Amount density=6.31 mol/m3	0.01045
495.29 K, Amount density=4.99 mol/m3	0.01047
495.31 K, Amount density=4.2 mol/m3	0.01049
495.84 K, Amount density=7.52 mol/m3	0.01046
496.21 K, Amount density=8.75 mol/m3	0.01046
498.38 K, Amount density=3.13 mol/m3	0.01057
498.45 K, Amount density=2.2 mol/m3	0.01056
